# Assay results as given in US20190183868A1, “FORMULATIONS AND TREATMENTS EMPLOYING HYDROXYPYRIDONATE ACTINIDE/LANTHANIDE DECORPORATION AGENTS” (priority 2016, published 2019).
# Experiments:
# [1] = Clearing circulating or newly deposited Pu from mouse tissues compared with CaNa3-DTPA; assay type: in vivo
# Excerpt: For example, the efficiency of 3,4,3-LI-1,2-HOPO for clearing circulating Pu from mouse tissues ranges from 100 times (skeleton) to 240 times (soft tissues) that of CaNa3-DTPA in five different protocols. In addition, the optimal activity dose of 3,4,3-LI-1,2-HOPO for removing newly deposited Pu from mice is 2.5% of the dose of CaNa3-DTPA used clinically. The tetradentate 5-LIO-Me-3,2-HOPO has potential therapeutic value for Pu, U, Am and Np, and its efficiency for clearing circulating Pu from mouse tissues ranges from 5 times (skeleton) to 15 times (liver) that of CaNa3-DTPA.
# [2] = Prophylactic parenteral or oral chelation treatment of mice before iv ^238Pu-citrate contamination; assay type: in vivo, Swiss-Webster mice; conditions: for prophylactic window with significant reductions in total body, skeleton and liver ^238Pu: oral administration, versus saline controls; for prophylactic window with significant reduction of body and tissue ^238Pu burden: parenteral (ip) administration prior to contamination
# Protocol: (§1) A stock solution of ^238Pu-nitrate in 4 M HNO3 was purchased from Eckert and Ziegler Isotope Products (Valencia, CA, USA) and used to prepare injection solutions. Contamination doses consisted of 0.2 mL aliquots of solutions containing 0.74 kBq (1.16 ng) of ^238Pu in 0.008 M sodium citrate and 0.14 M NaCl, pH 4. The ligands 3,4,3-LI(1,2-HOPO) and 5-LIO(Me-3,2-HOPO) were prepared by Synthetech, Inc. (Albany, Oreg., USA) and Albany Molecular Research, Inc. (Albany, NY, USA), respectively, as described previously. DTPA was obtained from Sigma-Aldrich (St. Louis, Mo., USA) and was formulated as Ca-DTPA using CaCO3 and NaOH, similarly to the formerly available drug product commercialized by Hameln Pharmaceuticals gmbh (Hameln, Germany). Ligand solutions were prepared such that the selected dosages ([…] for Ca-DTPA, 30 or 100 mol/kg for 3,4,3-LI(1,2-HOPO), and 100 or 200 mol/kg for 5-LIO(Me-3,2-HOPO)) were contained in 0.5 mL of 0.14 M NaCl, with the pH adjusted to 7.4-8.4 with 1 N NaOH. All solutions were filter-sterilized (0.22 μm) prior to administration. The concentration of each solution was verified by high-performance liquid chromatography, following modified published methods.
# (§2) All procedures and protocols used in the described in vivo studies were reviewed and approved by the Institutional Animal Care and Use Committee of Lawrence Berkeley National Laboratory and were performed in AAALAC accredited facilities. The animals used were young adult (86±6 days old for delayed treatment experiment and 90±3 days old for prophylactic treatment experiment) female (30.7±4.0 g for delayed treatment experiment and 30.8±1.6 g for prophylactic treatment experiment) Swiss-Webster mice (Simonsen Laboratories, Gilroy, Calif., USA). Gross body and tissue compositions, plasma, extracellular fluid, and red cell volumes of the whole body, major tissues and organs of these mice (intact or bled 25 to 40% of their total blood volume) have been determined previously. Mice were kept under a 12-hour light cycle with controlled temperature (18-22° C.) and relative humidity (30-70%), and were given water and food ad libitum. Each group of mice was housed together in a plastic stock cage lined with a 0.5 cm layer of highly absorbent low-ash pelleted cellulose bedding (ALPHA-dri®) for separation of urine and feces. Intravenous (iv) injections into a warmed lateral tail vein, intraperitoneal (ip) injections, oral administrations (po, through gastric intubation) and euthanasia were performed under isoflurane anesthesia. Treatment dose volumes were adjusted based on the weight of the mouse, with a 0.5 mL volume corresponding to a 35 g mouse. To probe the effect of delayed treatment, groups of five mice were injected iv with a single dose of ^238Pu-citrate, and ligand or control saline solutions were administered ip once at the following post-contamination treatment times: 1 h, 5 h, 16 h, 24 h, 3 d, 7 d. Excreta were collected daily for 7 days. Animals were euthanized 7 days after treatment. To probe the effect of prophylactic treatment, groups of five mice were first administered ligand or control saline solutions ip or po once at the following pre-contamination treatment times: −1 h, −6 h, −16 h, −24 h, −30 h, −40 h, −48 h. Mice were then injected iv with a single dose of ^238Pu-citrate and excreta were collected daily for 3 days. Animals were euthanized 3 days (72 h) after contamination. Mice were euthanized by cervical dislocation over their respective cage to collect the urine expelled at death, and immediately wrapped in plastic and frozen for later dissection.
# (§3) After partial thawing of the frozen mice, livers and kidneys were dissected, and the abdominal tissue remainder (ATR, which includes intact gastrointestinal (GI) tract, reproductive organs, spleen, urinary bladder, and abdominal fat) was removed. The livers, kidneys, ATR, and partially eviscerated carcasses were managed as individual samples. […]
# [3] = Decorporation of actinide ions in animal studies, potency versus DTPA; assay type: in vivo
# Excerpt: (§4) This property is particularly relevant to target Gd deposited in the brain.
# [4] = Complex stability constant in vitro, Pu(IV); assay type: binding
# Excerpt: (§5) The mechanism of action of 3,4,3-LI(1,2-HOPO) is a chelation mechanism, in which the compound binds the targeted actinide and forms a stable complex that can be eliminated through excretion pathways. Chelation is likely to be clinically efficacious if the affinity of the chelating agent for the targeted actinide metal ion is higher than those of potential biological ligands (such as proteins and bone matrices) and if its affinity for the targeted actinide metal ion is more specific than for essential divalent metal ions. A quantitative tool to predict the efficacy of a chelating agent and confirm its potential for actinide chelation is the determination of the corresponding actinide complex stability constants in vitro. As outlined in Example 2 below, these constants were evaluated for metals such as Pu(IV) (Log β110>41.5) or Cm(III) (Log β110=21.8), and support the chelation mechanism of action by 3,4,3-LI(1,2-HOPO).
# [5] = Complex stability constant in vitro, Cm(III); assay type: binding
# Excerpt: as §5
# [6] = ADME studies with ^14C-labeled 3,4,3-LI(1,2-HOPO) in rats (brain); assay type: in vivo; conditions: ^14C-labeled ligand; traces in rat brain several days after administration
# Excerpt: as §4
# [7] = Oral activity: removal of injected Pu after oral administration; assay type: in vivo; conditions: administered orally after a Pu injection, mice or beagles
# Excerpt: (§6) Oral Activity. Both compounds are orally active actinide chelators: when administered orally to mice or beagles after a Pu injection, 3,4,3-LI-1,2-HOPO and 5-LIO-Me-3,2-HOPO can remove up to 80% and 60%, respectively, of the injected Pu.
# [8] = Complex stability constant in vitro, Gd(III); assay type: binding
# Excerpt: as §5
# [9] = Delayed parenteral (ip) chelation treatment of mice contaminated iv with ^238Pu-citrate; assay type: in vivo, Swiss-Webster mice; conditions: for adverse effects at the dose levels used: both studies (delayed and prophylactic treatment); for sustained action beyond 24 hours after treatment: cumulative ^238Pu excretion, FIG. 4; for ^238Pu excretion pathway enhanced by treatment: independent of post-contamination treatment time, FIG. 5; for time by which rates of elimination became slower than in control animals: prompt treatment 1 hour post-contamination; for ^238Pu elimination, total body burden and tissue content versus saline-treated controls: 7 days after treatment
# Protocol: as §1, §2, §3
# [10] = Gd-153 decorporation in mice injected with ^153Gd citrate (Example 9); assay type: in vivo; conditions: for excretion pathway: Gd-153
# Protocol: The present example is an evaluation of the metal-removal effectiveness of various molecules, including 3,4,3-LI(1,2-HOPO) and DTPA. The arrangements tested (which compounds, how much, how long pre or post-contamination the compound was administered, etc.) are outlined in Table 9.1.
# The results of the various test arrangements in Table 9.1 are detailed in FIGS. 8A-8Q. The data is plotted as a percent of recovered dose (%RD), with whole animal and specific tissue isotope content determine at a unique time point (4 days post metal challenge) while excreta are determined daily until necropsy. […] The almost-exclusively-fecal excretion pathway of 3,4,3-LI(1,2-HOPO) is also remarkably different from that of DTPA (urinary). […] FIGS. 8A-8C depict a general overview of the results. FIG. 8D depicts a comparative analysis of the recovered dose in the body vs excreta. FIGS. 8E-8P depict a break down by tissue type, including brain (FIG. 8E), Thymus (FIG. 8F), heart (FIG. 8G), lungs (FIG. 8H), spleen (FIG. 8I), kidneys (FIG. 8J), abdominal remaining tissue (ART, FIG. 8K), all other soft tissues (SOFT, FIG. 8L), liver (FIG. 8M), and skeleton (SKEL, FIG. 8N). FIGS. 8O and 8P show the total urinary and fecal excretion at the time of necropsy. FIG. 8Q depicts the daily excreta.
# [11] = Pharmacokinetics and biodistribution of ^14C-labeled ligand in mice; assay type: in vivo, Swiss-Webster mouse; conditions: for metabolic degradation: ^14C-labeled ligands
# Excerpt: The pharmacokinetics and biodistribution profile of the ^14C-labeled 3,4,3-LI(1,2-HOPO) were recently characterized in the young Swiss-Webster mouse model. After parenteral injection, the radiolabeled compound was rapidly distributed into high vascular tissues, and highest kidney and liver concentrations were seen as early as 1-hour post-administration. However, those high concentrations […] and more strikingly, about 40% of the administered dose was still in various tissues and organs after 24 hours. […] Nevertheless, retention of the ligand was significant within the first 6 hours after oral administration, which also corroborates the shorter but consequent prophylactic activity of 3,4,3-LI(1,2-HOPO) after oral administration.
# Those differences have been discussed previously and are presumably based on respective ligand and actinide-complex physico-chemical parameters such as solubility, lipophilicity, and ionization constants. […] It is therefore likely that the radionuclide excretion path is ligand-driven.
# as §6
# [12] = single ip dose 1 hour to 16 hours post-contamination
compound,measurement,setting,value
"O=C(NCCCN(CCCCN(CCCNC(=O)c1cccc(=O)n1O)C(=O)c1cccc(=O)n1O)C(=O)c1cccc(=O)n1O)c1cccc(=O)n1O [3,4,3-LI(1,2-HOPO)]","optimal activity dose for removing newly deposited Pu, as share of the CaNa3-DTPA dose used clinically",[1]; mice,2.5%
same,efficiency for clearing circulating Pu relative to CaNa3-DTPA,[1]; mouse skeleton,100 times
same,efficiency for clearing circulating Pu relative to CaNa3-DTPA,[1]; mouse soft tissues,240 times
same,^238Pu urinary output relative to fecal output,[2]; 30 μmol/kg ip 1 hour prior to contamination,3 fold
same,^238Pu excreted within 3 days,[2]; ip injection 48 hours before contamination,up to 50%
same,"prophylactic window with significant reductions in total body, skeleton and liver ^238Pu",[2],6 h
same,prophylactic window with significant reduction of body and tissue ^238Pu burden,[2],≥ 48 h
same,"full body, skeleton, liver, soft tissue and kidney ^238Pu content versus saline- and DTPA-treated groups",[2]; prophylactic ip treatment,large significant reductions
same,oral bioavailability,[2]; reflected in lack of efficacy for earlier oral treatments,low
same,potency relative to DTPA at decorporating actinide ions,[3],up to 30 times
same,Log β110,[4],> 41.5
same,Log β110,[5],21.8
same,blood-brain barrier penetration,[6],can penetrate the blood-brain barrier
same,injected Pu removed,[7],up to 80%
same,Log β110,[8],20.5
same,^238Pu skeleton content,[9]; all tested treatment time points,significantly reduced
same,adverse effects at the dose levels used,[9],did not result in any discernable adverse effects
same,sustained action beyond 24 hours after treatment,[9],visible throughout the seven-day excreta collection period
same,^238Pu excretion pathway enhanced by treatment,[9],primarily through the biliary pathway
same,time by which rates of elimination became slower than in control animals,[9],3 days post-treatment
same,decrease in ^238Pu content versus DTPA treatment,[9]; [12],significantly better than those observed after DTPA treatment
same,"^238Pu elimination, total body burden and tissue content versus saline-treated controls",[9]; [12],significant increases in ^238Pu elimination rates
same,^238Pu elimination,[9]; treatment delayed 24 hours to 7 days after contamination,significantly enhanced
same,Gd-153 removal,"[10]; 100 μmol/kg ip, 48 hours post-exposure",extremely efficient
same,Gd-153 decorporation,"[10]; 100 μmol/kg ip, up to 24 hours prophylactically",high and almost quantitative level of decorporation
same,excretion pathway,[10],almost-exclusively-fecal
same,Gd-153 removal from kidneys,[10]; compared with DTPA,more efficient than DTPA
same,Gd-153 removal from the skeleton,"[10]; mouse, in vivo",ability at removing Gd-153 from the skeleton
same,metabolic degradation,[11],stable to metabolic degradation
same,administered dose still in various tissues and organs,"[11]; after 24 hours, parenteral injection, ^14C-labeled",about 40%
same,main mode of elimination of the ligand,"[11]; mice, parenteral or oral administration, ^14C-labeled",biliary pathway is the main mode of elimination
same,time of highest kidney and liver concentrations,"[11]; post-administration, parenteral injection, ^14C-labeled",1 h
"Cn1ccc(C(=O)NCCOCCNC(=O)c2ccn(C)c(=O)c2O)c(O)c1=O [5-LIO(Me-3,2-HOPO)]",efficiency for clearing circulating Pu relative to CaNa3-DTPA,[1]; mouse liver,15 times
same,efficiency for clearing circulating Pu relative to CaNa3-DTPA,[1]; mouse skeleton,5 times
same,"prophylactic window with significant reductions in total body, skeleton and liver ^238Pu",[2],6 h
same,prophylactic window with significant reduction of body and tissue ^238Pu burden,[2],1 h
same,injected Pu removed,[7],≤ 60%
same,adverse effects at the dose levels used,[9],did not result in any discernable adverse effects
same,sustained action beyond 24 hours after treatment,[9],did not display significant sustained action
same,^238Pu excretion pathway enhanced by treatment,[9],primarily through the biliary pathway
same,time by which rates of elimination became slower than in control animals,[9],2 days post-treatment
same,"^238Pu elimination, total body burden and tissue content versus saline-treated controls",[9]; [12],significant increases in ^238Pu elimination rates
same,metabolic degradation,[11],stable to metabolic degradation
"diethylenetriamine pentaacetic acid [DTPA, reference compound]",prophylactic window with significant reduction of body and tissue ^238Pu burden,[2],6 h
same,sustained action beyond 24 hours after treatment,[9],visible over several days after treatment
same,^238Pu excretion pathway enhanced by treatment,[9],enhanced urinary excretion
same,excretion pathway,[10],urinary
